Results on 7 molecules are retold here after PubChem BioAssay (NCI).

Among the test systems are IGROV1 ovarian; RXF 393 renal; MALME-3M melanoma; M14 melanoma; SR leukemia; CAKI-1 renal; SF-268 CNS; SK-MEL-28 melanoma; MDA-MB-435; MOLT-4 leukemia.
What all share (assay): DTP human tumour cell line panel, 48 h

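A five-concentration, 48-hour dose response in 96-well plates underlies each endpoint, interpolated linearly between surrounding concentrations. GI50 marks 50% less growth. At the TGI there is no net growth.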 Some results are limits rather than exact numbers.

Broadly, the TGI is the concentration giving total growth inhibition. Higher therefore signals less potent growth arrest. Consider `CC1=CC(=O)CC(C)(C)C1(O)/C=C/C(C)=C/C(=O)O` (stereo not given), for which the total growth inhibition concentration (TGI) in the experiment on IGROV1 ovarian, with RXF 393 renal, in the experiment with MALME-3M melanoma, with M14 melanoma, in the experiment on SR leukemia and in the experiment on CAKI-1 renal was over 100 µM in each case. Besides, the concentration for total growth inhibition (TGI) in the experiment with SF-268 CNS, in the experiment with SK-MEL-28 melanoma, with MDA-MB-435 and with MOLT-4 leukemia was over 100 µM in each case.
The GI50 is the concentration that inhibits growth by half. As to `Nc1ccccc1SC(CC(=O)c1ccccc1)c1ccc([N+](=O)[O-])cc1` (stereo not given), the GI50 with IGROV1 ovarian is 5.69 µM; in the experiment on RXF 393 renal, 15.8 µM; in the experiment with MALME-3M melanoma it was 15.3 µM; in the experiment on M14 melanoma, 13.8 µM; in the experiment with SR leukemia, 2.57 µM; in the experiment on CAKI-1 renal, 15.2 µM. The GI50 was 12.4 µM in the experiment with SF-268 CNS, 14.4 µM in the experiment with SK-MEL-28 melanoma, 14.3 µM in the experiment with MDA-MB-435 and 13.5 µM in the experiment with MOLT-4 leukemia. Moreover, the concentration for total growth inhibition (TGI) with IGROV1 ovarian was 21.6 µM; with RXF 393 renal it was 29.6 µM; in the experiment with MALME-3M melanoma, 30.3 µM; in the experiment on M14 melanoma it was 27.8 µM; with SR leukemia, 7.38 µM; in the experiment with CAKI-1 renal, 28.8 µM. For the same molecule, the concentration for total growth inhibition (TGI) is 25.8 µM in the experiment with SF-268 CNS, 27.6 µM in the experiment on SK-MEL-28 melanoma, 28 µM in the experiment with MDA-MB-435 and 60.1 µM in the experiment with MOLT-4 leukemia.
For the molecule `C/C1=C/C(=O)O[C@@H]2C[C@@H](CC[C@H](C)/C=C\C=C\CC1)O[C@@](O)([C@@H]1CSC(=O)N1CO)C2`, the GI50 in the experiment with IGROV1 ovarian was 0.0251 µM; in the experiment with RXF 393 renal it was 0.0367 µM; in the experiment on MALME-3M melanoma, 0.0962 µM; with M14 melanoma, 0.227 µM; in the experiment with SR leukemia, 0.154 µM; with CAKI-1 renal, 0.0203 µM. Further, the GI50 with SF-268 CNS was 0.0418 µM; with SK-MEL-28 melanoma, 0.164 µM; with MDA-MB-435, 0.29 µM; with MOLT-4 leukemia, 3.42 µM. Also, the TGI with IGROV1 ovarian came to 0.0928 µM; with RXF 393 renal it was 0.276 µM; with MALME-3M melanoma it was 21 µM; with M14 melanoma, 21.2 µM; with SR leukemia, 16 µM; in the experiment with CAKI-1 renal, 0.382 µM. The TGI is 0.198 µM with SF-268 CNS, 0.603 µM with SK-MEL-28 melanoma, over 88.6 µM in the experiment with MDA-MB-435 and over 51.8 µM in the experiment on MOLT-4 leukemia.
Take `O=C1/C=C/[C@@H](O)[C@@H]2C[C@@H](O)C[C@H]2/C=C/CCC[C@H](CCc2ccc(C(F)(F)F)cc2)O1`: the GI50 in the experiment on IGROV1 ovarian was 0.309 µM; with RXF 393 renal, 0.126 µM; in the experiment with MALME-3M melanoma, 0.364 µM; in the experiment on M14 melanoma, 0.247 µM; with SR leukemia, 0.311 µM; in the experiment on CAKI-1 renal, 0.312 µM. Moreover, the GI50 in the experiment with SF-268 CNS is 0.371 µM; in the experiment on SK-MEL-28 melanoma, 0.0405 µM; in the experiment with MDA-MB-435, 0.243 µM; with MOLT-4 leukemia, 0.32 µM. For the same molecule, the TGI is 7.01 µM in the experiment with IGROV1 ovarian; 0.669 µM with RXF 393 renal; 2.88 µM with MALME-3M melanoma; 11.9 µM in the experiment on M14 melanoma; 3.16 µM in the experiment on SR leukemia; over 100 µM in the experiment on CAKI-1 renal. Further, the concentration for total growth inhibition (TGI) in the experiment with SF-268 CNS is over 100 µM; with SK-MEL-28 melanoma it was 0.361 µM; with MDA-MB-435, over 72.1 µM; in the experiment with MOLT-4 leukemia, 0.832 µM.
In the case of `NC(=O)C1c2ccccc2C=Cc2ccccc21`, the GI50 in the experiment with IGROV1 ovarian, with RXF 393 renal, in the experiment with MALME-3M melanoma, with M14 melanoma, with SR leukemia and with CAKI-1 renal was over 100 µM in each case. In addition, the GI50 in the experiment on SF-268 CNS is over 100 µM; with SK-MEL-28 melanoma, over 100 µM; in the experiment on MDA-MB-435, 73.3 µM; in the experiment with MOLT-4 leukemia, over 100 µM. Besides, the TGI in the experiment with IGROV1 ovarian, with RXF 393 renal, in the experiment on MALME-3M melanoma, with M14 melanoma, in the experiment on SR leukemia and in the experiment on CAKI-1 renal was over 100 µM throughout. In addition, the concentration for total growth inhibition (TGI) with SF-268 CNS, in the experiment on SK-MEL-28 melanoma, in the experiment with MDA-MB-435 and in the experiment with MOLT-4 leukemia was over 100 µM in each case.
Turning to `CN[C@@H](C)C(=O)N[C@H]1CN(C(=O)CC(C)C)CC[C@H]2CC[C@@H](C(=O)NC(c3ccccc3)c3ccccc3)N2C1=O`, the GI50 was over 100 µM with IGROV1 ovarian; 7.38 µM with RXF 393 renal; 4.29 µM in the experiment on MALME-3M melanoma; over 100 µM with M14 melanoma; over 78 µM in the experiment with SR leukemia; over 100 µM with CAKI-1 renal. The GI50 with SF-268 CNS was over 100 µM; in the experiment with SK-MEL-28 melanoma, over 100 µM; with MDA-MB-435, over 100 µM; with MOLT-4 leukemia, over 86.7 µM. Further, the TGI in the experiment with IGROV1 ovarian is over 100 µM; in the experiment with RXF 393 renal it was over 100 µM; in the experiment on MALME-3M melanoma it was over 53.9 µM; in the experiment with M14 melanoma, over 100 µM; in the experiment on SR leukemia, over 100 µM; with CAKI-1 renal, over 100 µM. In addition, the TGI in the experiment with SF-268 CNS, with SK-MEL-28 melanoma, in the experiment with MDA-MB-435 and in the experiment with MOLT-4 leukemia was over 100 µM in each case.
Regarding `CCNCCC1(CC)C(=O)NC(=O)NC1=O`, the total growth inhibition concentration (TGI) in the experiment on IGROV1 ovarian, with RXF 393 renal, in the experiment on MALME-3M melanoma, in the experiment with M14 melanoma, in the experiment with SR leukemia and in the experiment on CAKI-1 renal was over 100 µM throughout. For the same molecule, the total growth inhibition concentration (TGI) in the experiment with SF-268 CNS, in the experiment on SK-MEL-28 melanoma, in the experiment on MDA-MB-435 and in the experiment on MOLT-4 leukemia was over 100 µM throughout.
